# What was measured:
# Type in all cases: functional
# Acinetobacter [1] = assay: Antibacterial activity against imipenem-susceptible Acinetobacter by CLSI M7-A7 broth microdilution method
# Pasteurella multocida = assay: Antibacterial activity against Pasteurella multocida by CLSI M7-A7 broth microdilution method
# Enterococcus faecium = assay: Antibacterial activity against vancomycin-resistant Enterococcus faecium by CLSI M7-A7 broth microdilution method
# Streptococcus agalactiae [2] = assay: Antibacterial activity against erythromycin-susceptible Streptococcus agalactiae by CLSI M7-A7 broth microdilution method
# Providencia sp. = assay: Antibacterial activity against ceftazidime-susceptible Providencia sp. by CLSI M7-A7 broth microdilution method
# Acinetobacter [3] = assay: Antibacterial activity against multidrug-resistant Acinetobacter by CLSI M7-A7 broth microdilution method
# Enterobacter cloacae [4] = assay: Antibacterial activity against ceftazidime-nonsusceptible Enterobacter cloacae by CLSI M7-A7 broth microdilution method
# Enterobacter cloacae [5] = assay: Antibacterial activity against ceftazidime-susceptible Enterobacter cloacae by CLSI M7-A7 broth microdilution method
# Morganella morganii = assay: Antibacterial activity against ceftazidime-susceptible Morganella morganii by CLSI M7-A7 broth microdilution method
# Streptococcus pyogenes [6] = assay: Antibacterial activity against erythromycin-nonsusceptible Streptococcus pyogenes by CLSI M7-A7 broth microdilution method
# Haemophilus influenzae [7] = assay: Antibacterial activity against beta lactamase-negative Haemophilus influenzae by CLSI M7-A7 broth microdilution method
# Staphylococcus aureus [8] = assay: Antibacterial activity against methicillin-susceptible Staphylococcus aureus by CLSI M7-A7 broth microdilution method
# Proteus mirabilis = assay: Antibacterial activity against ceftazidime-susceptible Proteus mirabilis by CLSI M7-A7 broth microdilution method
# Enterobacteriaceae [9] = assay: Antibacterial activity against ceftazidime-nonsusceptible Enterobacteriaceae by CLSI M7-A7 broth microdilution method
# Enterobacteriaceae [10] = assay: Antibacterial activity against ceftazidime-susceptible Enterobacteriaceae by CLSI M7-A7 broth microdilution method
# Citrobacter freundii [11] = assay: Antibacterial activity against ceftazidime-nonsusceptible Citrobacter freundii by CLSI M7-A7 broth microdilution method
# Streptococcus pneumoniae [12] = assay: Antibacterial activity against penicillin-resistant Streptococcus pneumoniae by CLSI M7-A7 broth microdilution method
# Klebsiella pneumoniae [13] = assay: Antibacterial activity against ceftazidime-susceptible Klebsiella pneumoniae by CLSI M7-A7 broth microdilution method
# Staphylococcus aureus [14] = assay: Antibacterial activity against coagulase-negative and oxacillin-resistant Staphylococcus aureus by CLSI M7-A7 broth microdilution method
# Citrobacter freundii [15] = assay: Antibacterial activity against ceftazidime-susceptible Citrobacter freundii by CLSI M7-A7 broth microdilution method
# Klebsiella pneumoniae [16] = assay: Antibacterial activity against ceftazidime-nonsusceptible Klebsiella pneumoniae by CLSI M7-A7 broth microdilution method
# Streptococcus pneumoniae [17] = assay: Antibacterial activity against penicillin-susceptible Streptococcus pneumoniae by CLSI M7-A7 broth microdilution method
# Haemophilus influenzae [18] = assay: Antibacterial activity against beta lactamase-positive Haemophilus influenzae by CLSI M7-A7 broth microdilution method
# Streptococcus viridans [19] = assay: Antibacterial activity against penicillin-susceptible Streptococcus viridans by CLSI M7-A7 broth microdilution method
# Streptococcus viridans [20] = assay: Antibacterial activity against penicillin-nonsusceptible Streptococcus viridans by CLSI M7-A7 broth microdilution method
# Moraxella catarrhalis = assay: Antibacterial activity against beta lactamase-positive Moraxella catarrhalis by CLSI M7-A7 broth microdilution method
# Staphylococcus aureus [21] = assay: Antibacterial activity against methicillin-resistant Staphylococcus aureus by CLSI M7-A7 broth microdilution method
# Serratia marcescens = assay: Antibacterial activity against ceftazidime-susceptible Serratia marcescens by CLSI M7-A7 broth microdilution method
# Escherichia coli [22] = assay: Antibacterial activity against ceftazidime-nonsusceptible Escherichia coli by CLSI M7-A7 broth microdilution method
# Escherichia coli [23] = assay: Antibacterial activity against ceftazidime-susceptible Escherichia coli by CLSI M7-A7 broth microdilution method
# Streptococcus pyogenes [24] = assay: Antibacterial activity against erythromycin-susceptible Streptococcus pyogenes by CLSI M7-A7 broth microdilution method
# Enterococcus faecalis [25] = assay: Antibacterial activity against vancomycin-susceptible Enterococcus faecalis by CLSI M7-A7 broth microdilution method
# Enterococcus faecalis [26] = assay: Antibacterial activity against vancomycin-resistant Enterococcus faecalis by CLSI M7-A7 broth microdilution method
# Streptococcus agalactiae [27] = assay: Antibacterial activity against erythromycin-nonsusceptible Streptococcus agalactiae by CLSI M7-A7 broth microdilution method
# Staphylococcus aureus [28] = assay: Antibacterial activity against coagulase-negative and oxacillin-susceptible Staphylococcus aureus by CLSI M7-A7 broth microdilution method
structure (smiles),measurement,setting,value
CCO/N=C(\C(=O)N[C@@H]1C(=O)N2C(C(=O)[O-])=C(Sc3nc(-c4cc[n+](C)cc4)cs3)CS[C@H]12)c1nsc(NP(=O)(O)O)n1 [CEFTAROLINE FOSAMIL],MIC50,Acinetobacter [1],4 µg/mL
same,MIC90,Acinetobacter [1],> 16 µg/mL
same,MIC,Pasteurella multocida,≤ 0.008 µg/mL
same,MIC50,Pasteurella multocida,≤ 0.008 µg/mL
same,MIC90,Pasteurella multocida,0.06 µg/mL
same,MIC50,Enterococcus faecium,> 16 µg/mL
same,MIC90,Enterococcus faecium,> 16 µg/mL
same,MIC50,Streptococcus agalactiae [2],0.015 µg/mL
same,MIC90,Streptococcus agalactiae [2],0.015 µg/mL
same,MIC50,Providencia sp.,1 µg/mL
same,MIC90,Providencia sp.,> 16 µg/mL
same,MIC50,Acinetobacter [3],> 16 µg/mL
same,MIC50,Enterobacter cloacae [4],> 16 µg/mL
same,MIC90,Enterobacter cloacae [4],> 16 µg/mL
same,MIC50,Enterobacter cloacae [5],0.12 µg/mL
same,MIC90,Enterobacter cloacae [5],1 µg/mL
same,MIC50,Morganella morganii,0.06 µg/mL
same,MIC90,Morganella morganii,16 µg/mL
same,MIC,Streptococcus pyogenes [6],≤ 0.008 µg/mL
same,MIC50,Streptococcus pyogenes [6],≤ 0.008 µg/mL
same,MIC90,Streptococcus pyogenes [6],0.015 µg/mL
same,MIC,Haemophilus influenzae [7],≤ 0.008 µg/mL
same,MIC50,Haemophilus influenzae [7],≤ 0.008 µg/mL
same,MIC90,Haemophilus influenzae [7],0.015 µg/mL
same,MIC50,Staphylococcus aureus [8],0.25 µg/mL
same,MIC90,Staphylococcus aureus [8],0.25 µg/mL
same,MIC50,Proteus mirabilis,0.06 µg/mL
same,MIC90,Proteus mirabilis,4 µg/mL
same,MIC50,Enterobacteriaceae [9],> 16 µg/mL
same,MIC90,Enterobacteriaceae [9],> 16 µg/mL
same,MIC50,Enterobacteriaceae [10],0.06 µg/mL
same,MIC90,Enterobacteriaceae [10],1 µg/mL
same,MIC50,Citrobacter freundii [11],> 16 µg/mL
same,MIC90,Citrobacter freundii [11],> 16 µg/mL
same,MIC50,Streptococcus pneumoniae [12],0.12 µg/mL
same,MIC90,Streptococcus pneumoniae [12],0.12 µg/mL
same,MIC50,Klebsiella pneumoniae [13],0.06 µg/mL
same,MIC90,Klebsiella pneumoniae [13],0.25 µg/mL
same,MIC50,Staphylococcus aureus [14],0.5 µg/mL
same,MIC90,Staphylococcus aureus [14],0.5 µg/mL
same,MIC50,Citrobacter freundii [15],0.12 µg/mL
same,MIC90,Citrobacter freundii [15],0.25 µg/mL
same,MIC50,Klebsiella pneumoniae [16],> 16 µg/mL
same,MIC90,Klebsiella pneumoniae [16],> 16 µg/mL
same,MIC,Streptococcus pneumoniae [17],≤ 0.008 µg/mL
same,MIC50,Streptococcus pneumoniae [17],≤ 0.008 µg/mL
same,MIC90,Streptococcus pneumoniae [17],0.015 µg/mL
same,MIC50,Haemophilus influenzae [18],0.015 µg/mL
same,MIC90,Haemophilus influenzae [18],0.03 µg/mL
same,MIC,Streptococcus viridans [19],≤ 0.008 µg/mL
same,MIC50,Streptococcus viridans [19],≤ 0.008 µg/mL
same,MIC90,Streptococcus viridans [19],0.03 µg/mL
same,MIC50,Streptococcus viridans [20],0.12 µg/mL
same,MIC90,Streptococcus viridans [20],0.5 µg/mL
same,MIC50,Moraxella catarrhalis,0.06 µg/mL
same,MIC90,Moraxella catarrhalis,0.25 µg/mL
same,MIC50,Staphylococcus aureus [21],0.5 µg/mL
same,MIC90,Staphylococcus aureus [21],1 µg/mL
same,MIC50,Serratia marcescens,0.5 µg/mL
same,MIC90,Serratia marcescens,16 µg/mL
same,MIC50,Escherichia coli [22],> 16 µg/mL
same,MIC90,Escherichia coli [22],> 16 µg/mL
same,MIC50,Escherichia coli [23],0.06 µg/mL
same,MIC90,Escherichia coli [23],0.5 µg/mL
same,MIC,Streptococcus pyogenes [24],≤ 0.008 µg/mL
same,MIC50,Streptococcus pyogenes [24],≤ 0.008 µg/mL
same,MIC90,Streptococcus pyogenes [24],≤ 0.008 µg/mL
same,MIC50,Enterococcus faecalis [25],2 µg/mL
same,MIC90,Enterococcus faecalis [25],4 µg/mL
same,MIC50,Enterococcus faecalis [26],4 µg/mL
same,MIC90,Enterococcus faecalis [26],4 µg/mL
same,MIC50,Streptococcus agalactiae [27],0.015 µg/mL
same,MIC90,Streptococcus agalactiae [27],0.015 µg/mL
same,MIC50,Staphylococcus aureus [28],0.06 µg/mL
same,MIC90,Staphylococcus aureus [28],0.12 µg/mL
